Source: patent publication US9776972B2, “Pyrazole derivatives as arginine methyltransferase inhibitors and uses thereof” (priority 2013, dated 2017)
Structures can show the parent of a compound that is named as a salt. Where two headings read alike, the source gives them in different places.

Columns and labels:
[1] = biological target: T1, human PRMT6 (Homo sapiens, UniProt Q96LA8); assay: PRMT6 Biochemical Assay (3H-SAM Flashplate, peptide substrate)
T1 construct: Flag-PRMT6-His; made in house; host or cells: HEK 293F cells (BacMam baculovirus)
T1 sequence (Q96LA8 with tags, fused parts or gaps): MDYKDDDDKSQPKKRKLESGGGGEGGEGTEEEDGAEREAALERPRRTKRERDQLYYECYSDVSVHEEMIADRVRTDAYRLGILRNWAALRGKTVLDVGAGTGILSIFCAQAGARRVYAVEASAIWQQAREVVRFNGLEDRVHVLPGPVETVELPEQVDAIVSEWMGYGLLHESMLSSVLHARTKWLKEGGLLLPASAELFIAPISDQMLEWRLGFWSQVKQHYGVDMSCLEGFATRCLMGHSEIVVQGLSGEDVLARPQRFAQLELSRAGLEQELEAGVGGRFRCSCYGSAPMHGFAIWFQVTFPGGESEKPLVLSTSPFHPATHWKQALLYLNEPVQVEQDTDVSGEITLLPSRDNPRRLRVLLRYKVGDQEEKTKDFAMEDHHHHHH
Summary of the method: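 Flag-PRMT6-His, expressed in mammalian cells from a BacMam vector, was preincubated with compound for 30 min at room temperature in Bicine pH 7.6 buffer with TCEP, BSG and Tween 20. Reactions were started with ³H-SAM and a biotinylated histone H4 36-50 peptide, then stopped with cold SAM (400 uM final). Labeled peptide was captured on streptavidin Flashplates, counted, and fitted to a 3- or 4-parameter curve.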

[2] = biological target: T2, human PRMT1 (Homo sapiens, UniProt Q99873); assay: PRMT1 Biochemical Assay (3H-SAM Flashplate, peptide substrate)
T2 construct: GST-tagged PRMT1; made in house; host or cells: High Five insect cells (baculovirus)
T2 sequence (Q99873 with tags, fused parts or gaps): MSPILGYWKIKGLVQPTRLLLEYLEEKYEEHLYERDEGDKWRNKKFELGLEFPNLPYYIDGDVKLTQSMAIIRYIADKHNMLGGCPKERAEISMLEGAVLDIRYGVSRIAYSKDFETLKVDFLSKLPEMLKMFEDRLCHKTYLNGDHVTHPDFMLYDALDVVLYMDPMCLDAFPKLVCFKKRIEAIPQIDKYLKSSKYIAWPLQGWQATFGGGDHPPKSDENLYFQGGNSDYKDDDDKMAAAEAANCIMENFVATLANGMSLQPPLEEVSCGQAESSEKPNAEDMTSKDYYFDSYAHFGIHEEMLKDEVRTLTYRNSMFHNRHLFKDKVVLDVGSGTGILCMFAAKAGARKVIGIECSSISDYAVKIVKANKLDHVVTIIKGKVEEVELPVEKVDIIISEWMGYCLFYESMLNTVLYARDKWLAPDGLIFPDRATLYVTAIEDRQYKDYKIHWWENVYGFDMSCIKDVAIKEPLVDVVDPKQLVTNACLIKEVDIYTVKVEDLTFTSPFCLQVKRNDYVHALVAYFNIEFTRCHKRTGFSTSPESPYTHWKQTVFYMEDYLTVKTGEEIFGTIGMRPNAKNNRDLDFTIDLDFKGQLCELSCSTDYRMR
Summary of the method: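 GST-tagged PRMT1 from baculovirus-infected cells, preincubated with compounds 30 min at room temperature in 20 mM Bicine pH 7.6, 1 mM TCEP, 0.005% BSG, 0.002% Tween 20. Reaction started with ³H-SAM plus biotinylated peptide, stopped with 300 µM cold SAM.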

[3] = Biochemical IC50 PRMT6, single experiment or average of multiple experiments
[4] = single experiment or average of multiple experiments

| SMILES | IC50 [1, 3] [µM] | IC50 [2, 4] [µM] | IC50 ([1]; Biochemical IC50 PRMT6) [µM] | IC50 [2] [µM] | IC50 ([1]; single experiment or average of multiple experiments, read-out: Biochemical IC50 PRMT6) [µM] |
| --- | --- | --- | --- | --- | --- |
| CN(CCN)Cc1c[nH]nc1-c1ccc(Cl)cc1F [Compound 132] | 0.00991 | 0.0239 |  |  |  |
| CN(CCN)Cc1n[nH]cc1-c1ccc(OC(F)F)cc1 [Compound 138] | 0.0445 | 0.0212 |  |  |  |
| CNCCN(C)Cc1cnn(C)c1-c1ccc(OC(C)C)cc1 [Compound 244, hydrochloride] | 0.0451 | 0.00868 | < 0.1 | < 0.1 |  |
| CNCCN(C)Cc1c[nH]nc1-c1ccc(OC2COC2)cc1 [Compound 283] | 0.0256 | 0.00665 | < 0.1 | < 0.1 |  |
| CNCCN(C)Cc1c[nH]nc1-c1ccc(OCC2CCOCC2)cc1 [Compound 284] | 0.0405 | 0.0133 | < 0.1 | < 0.1 |  |
| CNCCN(C)Cc1c[nH]nc1-c1ccc(OCC2CCOC2)cc1 (stereo not shown) [Compound 285] | 0.0332 | 0.0148 | < 0.1 | < 0.1 |  |
| CNCCN(C)Cc1c[nH]nc1-c1ccc(OC(CO)C(C)C)cc1 (stereo not shown) [Compound 286] |  | 0.0265 | < 0.1 | < 0.1 | 0.0321 |
| CNCCN(C)Cc1c[nH]nc1-c1ccc(OCC2CC2)cc1 [Compound 288] | 0.0143 | 0.00897 | < 0.1 | < 0.1 |  |
| CNCCN(C)Cc1c[nH]nc1-c1ccc(OCCOC)cc1 [Compound 289] | 0.0365 | 0.0211 | < 0.1 | < 0.1 |  |
| CCC(CC)Oc1ccc(-c2n[nH]cc2CN(C)CCNC)cc1 [Compound 290] | 0.0115 | 0.00828 | < 0.1 | < 0.1 |  |
| CNCCN(C)Cc1c[nH]nc1-c1ccc(OC2CCOCC2)c(F)c1 [Compound 291] | 0.0277 | 0.0156 | < 0.1 | < 0.1 |  |
| CNCCN(C)Cc1c[nH]nc1-c1ccc(OC2CCOCC2)c(Cl)c1 [Compound 292] | 0.0832 | 0.0273 | < 0.1 | < 0.1 |  |
| CNCCN(C)Cc1c[nH]nc1-c1ccc(OC2CC2)cc1 [Compound 293] | 0.0288 | 0.0135 | < 0.1 | < 0.1 |  |
| CNCCN(C)Cc1c[nH]nc1-c1ccc(NC(C)C)cc1 [Compound 295] | 0.0649 | 0.0287 | < 0.1 | < 0.1 |  |
| CNCCN(C)Cc1c[nH]nc1-c1ccc(NCC(C)C)cc1 [Compound 296] | 0.033 | 0.0288 | < 0.1 | < 0.1 |  |
| CNCCN(C)Cc1c[nH]nc1-c1ccc(Oc2ccccc2)c(F)c1 [Compound 297] | 0.0121 | 0.00337 | < 0.1 | < 0.1 |  |

| SMILES | IC50 [1, 3] [µM] | IC50 [2, 4] [µM] | IC50 ([1]; Biochemical IC50 PRMT6) [µM] | IC50 [2] [µM] | IC50 ([1]; single experiment or average of multiple experiments, read-out: Biochemical IC50 PRMT6) [µM] |
| --- | --- | --- | --- | --- | --- |
| CNCCN(C)Cc1c[nH]nc1-c1ccc(OC2CCC(O)CC2)cc1 (stereo not shown) [Compound 299] | 0.0159 | 0.0198 | < 0.1 | < 0.1 |  |
| CNCCN(C)Cc1c[nH]nc1-c1ccc(N(C)C(C)C)cc1 [Compound 300] | 0.177 | 0.0279 | 0.101 to 1 | < 0.1 |  |
| CNCCN(C)Cc1c[nH]nc1-c1ccc(Oc2ncccn2)cc1 [Compound 302] | 0.0497 | 0.0334 | < 0.1 | < 0.1 |  |
| CNCCN(C)Cc1c[nH]nc1-c1ccc(Oc2cncnc2)cc1 [Compound 303] | 0.024 | 0.0279 | < 0.1 | < 0.1 |  |
| CNCCN(C)Cc1c[nH]nc1-c1ccc(OC2CCC2)cc1 [Compound 304] | 0.0241 | 0.00659 | < 0.1 | < 0.1 |  |
| CNCCN(C)Cc1c[nH]nc1-c1ccc(OCC(C)C)cc1 [Compound 306] | 0.0233 | 0.0071 | < 0.1 | < 0.1 |  |
| CNCCN(C)Cc1c[nH]nc1-c1ccc(OCC2CCC2)cc1 [Compound 307] | 0.0197 | 0.00589 | < 0.1 | < 0.1 |  |
| CC[C@@H](C)Oc1ccc(-c2n[nH]cc2CN(C)CCNC)cc1 [Compound 308] | 0.0131 | 0.00707 | < 0.1 | < 0.1 |  |
| CC[C@H](C)Oc1ccc(-c2n[nH]cc2CN(C)CCNC)cc1 [Compound 309] | 0.0152 | 0.0067 | < 0.1 | < 0.1 |  |
| CCC(COC)Oc1ccc(-c2n[nH]cc2CN(C)CCNC)cc1 (stereo not shown) [Compound 310] | 0.0324 | 0.0145 | < 0.1 | < 0.1 |  |
| CNCCN(C)Cc1c[nH]nc1-c1ccc(OC(COC)C(C)C)cc1 (stereo not shown) [Compound 311] | 0.0503 | 0.0216 | < 0.1 | < 0.1 |  |
| CNCCN(C)Cc1c[nH]nc1-c1ccc(Oc2ccncn2)cc1 [Compound 312] | 0.0195 | 0.0116 | < 0.1 | < 0.1 |  |
| CNCCN(C)Cc1c[nH]nc1-c1ccc(C(C)(C)COC)cc1 [Compound 313] | 0.113 | 0.0349 | 0.101 to 1 | < 0.1 |  |
| CNCCN(C)Cc1c[nH]nc1-c1ccc(OC(COC)CC(C)C)cc1 (stereo not shown) [Compound 314] | 0.0386 | 0.0182 | < 0.1 | < 0.1 |  |
| CNCCN(C)Cc1c[nH]nc1-c1ccc(OC2CC(OC)C2)cc1 (stereo not shown) [Compound 315] | 0.0106 | 0.0235 | < 0.1 | < 0.1 |  |
| CNCCN(C)Cc1c[nH]nc1-c1ccc(OC(COC)COC)cc1 [Compound 316] | 0.0967 | 0.0175 | < 0.1 | < 0.1 |  |

The next lines start with results.

| IC50 [1, 3] [µM] | IC50 [2, 4] [µM] | IC50 ([1]; Biochemical IC50 PRMT6) [µM] | IC50 [2] [µM] | SMILES | IC50 ([1]; single experiment or average of multiple experiments, read-out: Biochemical IC50 PRMT6) [µM] |
| --- | --- | --- | --- | --- | --- |
| 0.0634 | 0.135 |  |  | COc1cccc(-c2n[nH]cc2CN(C)CCN)c1 [Compound 130] |  |
| 0.0121 | 0.0296 |  |  | Cc1cccc(-c2n[nH]cc2CN(C)CCN)c1 [Compound 131] |  |
| 0.0101 | 0.0248 |  |  | Cc1cc(Cl)ccc1-c1n[nH]cc1CN(C)CCN [Compound 133] |  |
| 0.0108 | 0.0108 |  |  | COc1ccc(-c2n[nH]cc2CN(C)CCN)cc1F [Compound 134] |  |
| 0.0289 | 0.0481 |  |  | CN(CCN)Cc1c[nH]nc1-c1ccc(C(F)(F)F)cc1Cl [Compound 135] |  |
| 0.0129 | 0.0275 |  |  | CCNC(=O)c1ccc(-c2n[nH]cc2CN(C)CCN)cc1 [Compound 136] |  |
| 0.00842 | 0.0192 |  |  | CN(CCN)Cc1c[nH]nc1-c1cc(Cl)cc(Cl)c1 [Compound 137] |  |
| 3.01 | 0.399 |  |  | CN(CCN)Cc1c[nH]nc1-c1ccccc1C#N [Compound 140] |  |
| 0.00779 | 0.00816 |  |  | CN(CCN)Cc1c[nH]nc1-c1ccc(C(F)(F)F)c(F)c1 [Compound 141] |  |
| 0.0162 | 0.0297 |  |  | COc1cc(-c2n[nH]cc2CN(C)CCN)ccc1F [Compound 142] |  |
| 0.107 | 0.116 |  |  | CCN(CC)C(=O)c1ccc(-c2n[nH]cc2CN(C)CCN)cc1 [Compound 143] |  |
| 0.0491 | 0.00579 |  |  | CC(C)Oc1ccc(-c2c[nH]nc2CN(C)CCN)cc1F [Compound 144] |  |
| 0.0269 | 0.00787 | < 0.1 | < 0.1 | CNCCN(C)Cc1c[nH]nc1-c1ccc(OCC2CC2)c(F)c1 [Compound 298] |  |
| 0.0253 | 0.00643 | < 0.1 | < 0.1 | CNCCN(C)Cc1c[nH]nc1-c1ccc(OC2CC2)c(F)c1 [Compound 301] |  |
| 0.0276 | 0.00636 | < 0.1 | < 0.1 | CNCCN(C)Cc1c[nH]nc1-c1ccc(OC2CCC2)c(F)c1 [Compound 305] |  |
